Tests used:
Sonic hedgehog protein = Sonic hedgehog protein (Mus musculus, UniProt Q62226); test: Inhibition of SHH signaling pathway in mouse NIH3T3 cells measured after 48 hrs by Gli-luciferase reporter assay; format: cell-based
[1] = Half life in Sprague-Dawley rat at 5 mg/kg, po; format: ADME, organism-based; design: dose 5 mg/kg, route oral; settings: in vivo
[2] = Mean residence time in Sprague-Dawley rat at 5 mg/kg, po; format: ADME, organism-based; design: dose 5 mg/kg, route oral; settings: in vivo
[3] = Clearance in Sprague-Dawley rat at 5 mg/kg, po; format: ADME, organism-based; design: dose 5 mg/kg, route oral; settings: in vivo
Rattus norvegicus [4] = test: Volume of distribution at steady state in Sprague-Dawley rat at 5 mg/kg, po; format: ADME, organism-based; design: dose 5 mg/kg, route oral; settings: in vivo
[5] = AUC in Sprague-Dawley rat at 5 mg/kg, po; format: ADME, organism-based; design: dose 5 mg/kg, route oral; settings: plasma
[6] = Cmax in Sprague-Dawley rat at 5 mg/kg, po; format: ADME, organism-based; design: dose 5 mg/kg, route oral; settings: in vivo
[7] = Oral bioavailability in Sprague-Dawley rat at 5 mg/kg; format: ADME, organism-based; settings: in vivo
[8] = Half life in Sprague-Dawley rat at 1 mg/kg, iv; format: ADME, organism-based; design: dose 1 mg/kg, route intravenous; settings: in vivo
Rattus norvegicus [9] = test: Mean residence time in Sprague-Dawley rat at 1 mg/kg, iv; format: ADME, organism-based; design: dose 1 mg/kg, route intravenous; settings: in vivo
Rattus norvegicus [10] = test: Clearance in Sprague-Dawley rat at 1 mg/kg, iv; format: ADME, organism-based; design: dose 1 mg/kg, route intravenous; settings: in vivo
Rattus norvegicus [11] = test: Volume of distribution at steady state in Sprague-Dawley rat at 1 mg/kg, iv; format: ADME, organism-based; design: dose 1 mg/kg, route intravenous; settings: in vivo
[12] = AUC in Sprague-Dawley rat at 1 mg/kg, iv; format: ADME, organism-based; design: dose 1 mg/kg, route intravenous; settings: plasma
[13] = Cmax in Sprague-Dawley rat at 1 mg/kg, iv; format: ADME, organism-based; design: dose 1 mg/kg, route intravenous; settings: in vivo

Chain of Sonic hedgehog protein (Q62226 25-198 limits assumed): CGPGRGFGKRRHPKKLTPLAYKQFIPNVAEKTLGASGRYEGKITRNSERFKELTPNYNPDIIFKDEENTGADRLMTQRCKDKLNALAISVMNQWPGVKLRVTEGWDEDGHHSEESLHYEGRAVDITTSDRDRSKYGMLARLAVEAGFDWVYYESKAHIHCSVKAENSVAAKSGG

IC50 (Sonic hedgehog protein) [nM] | Compound | other results
0.54 | Cc1cnc(Nc2ccc(C(=O)Nc3c(C)cccc3C)cc2)nc1-c1ccncc1 | –
1.6 | Cc1cccc(C)c1NC(=O)c1ccc(Nc2nc(C)c(C)c(-c3ccc(OC(F)(F)F)cc3)n2)cc1 | –
1.2 | Cc1cccc(C)c1NC(=O)c1ccc(Nc2nccc(-c3ccc(OC(F)(F)F)cc3)n2)cc1 | –
1.4 | Cc1cc(-c2ccc(OC(F)(F)F)cc2)nc(Nc2ccc(C(=O)Nc3c(C)cccc3C)cc2)n1 | –
1.6 | Cc1cccc(C)c1NC(=O)c1ccc(Nc2ncc(F)c(-c3ccc(OC(F)(F)F)cc3)n2)cc1 | –
0.8 | CCCc1cc(-c2ccc(OC(F)(F)F)cc2)nc(Nc2ccc(C(=O)Nc3c(C)cccc3C)cc2)n1 | –
5.3 | CCc1cnc(Nc2ccc(C(=O)Nc3c(C)cccc3C)cc2)nc1-c1ccc(OC(F)(F)F)cc1 | –
1.6 | Cc1cccc(C)c1NC(=O)c1ccc(Nc2cc(-c3ccc(OC(F)(F)F)cc3)ccn2)cc1 | –
23.4 | Cc1cccc(C)c1NC(=O)c1ccc(Nc2cccc(-c3ccc(OC(F)(F)F)cc3)n2)cc1 | –
0.53 | Cc1cccc(C)c1NC(=O)c1ccc(Nc2ncc(C(F)(F)F)c(-c3ccc(OC(F)(F)F)cc3)n2)cc1 | –
> 500 | Cc1cnc(Nc2ccc(C(=O)Nc3c(C)cccc3C)cc2)nc1-c1cccnc1 | –
10.6 | Cc1cnc(Nc2ccc(C(=O)Nc3c(C)cccc3C)cc2)nc1-c1cnn(C)c1 | –
15.7 | Cc1cnc(Nc2ccc(C(=O)Nc3c(C)cccc3C)cc2)nc1-c1ccoc1 | –
32.8 | Cc1cnc(Nc2ccc(C(=O)Nc3c(C)cccc3C)cc2)nc1C1CC1 | –
152 | Cc1cnc(Nc2ccc(C(=O)Nc3c(C)cccc3C)cc2)nc1C | –
34.3 | Cc1cnc(Nc2ccc(C(=O)Nc3c(C)cccc3C)cc2)nc1Cc1ccccc1 | –
2.7 | Cc1cnc(N(C)c2ccc(C(=O)Nc3c(C)cccc3C)cc2)nc1-c1ccc(OC(F)(F)F)cc1 | –
42.1 | Cc1ccccc1C(=O)Nc1ccc(Nc2ncc(C)c(-c3ccc(OC(F)(F)F)cc3)n2)cc1 | –
1 | Cc1ccccc1NC(=O)c1ccc(Nc2ncc(C)c(-c3ccc(OC(F)(F)F)cc3)n2)cc1 | –
1.2 | Cc1ccc(-c2cnn(C)c2)cc1NC(=O)c1ccc(Nc2ncc(C)c(-c3ccc(OC(F)(F)F)cc3)n2)cc1 | –

IC50 (Sonic hedgehog protein) [nM] | Compound | other results
118 | Cc1cnc(Nc2ccc(C(=O)Nc3ccc(CN4CCN(C)CC4)cc3)cc2)nc1-c1ccc(OC(F)(F)F)cc1 | –
354 | Cc1cnc(Nc2ccc(C(=O)Nc3ccccc3CN3CCN(C)CC3)cc2)nc1-c1ccc(OC(F)(F)F)cc1 | –
73.1 | Cc1cnc(Nc2ccc(C(=O)NC(C)C)cc2)nc1-c1ccc(OC(F)(F)F)cc1 | –
2.2 | Cc1cnc(Nc2ccc(C(=O)NC3CCCCC3)cc2)nc1-c1ccc(OC(F)(F)F)cc1 | –
1.1 | Cc1ccc(CN(C)Cc2ccccc2)cc1NC(=O)c1ccc(Nc2ncc(C)c(-c3ccc(OC(F)(F)F)cc3)n2)cc1 | –
101 | Cc1ccc(CN(C)Cc2ccccc2)cc1NC(=O)c1ccc(Nc2ncc(C)c(C)n2)cc1 | –
1.3 | Cc1cccc(C)c1NC(=O)c1ccc(Nc2ncc(C3CC3)c(-c3ccc(OC(F)(F)F)cc3)n2)cc1 | –
125 | Cc1cnc(Nc2ccc3[nH]ncc3c2)nc1-c1ccc(OC(F)(F)F)cc1 | –
> 500 | Cc1cnc(Nc2ccc(N3C[C@@H](C)O[C@@H](C)C3)nc2)nc1-c1ccc(OC(F)(F)F)cc1 | –
1.3 | Cc1cnc(Nc2ccc(C(=O)Nc3c(C)cccc3C)cc2)nc1-c1ccc(OC(F)(F)F)cc1 | half-life [1]: 7 h; MRT [2]: 5.1 h; CL/F [3]: 46.6 mL/min/kg; Vdss (Rattus norvegicus [4]): 27.738 L/kg; AUC [5]: 1700 ng·h/mL; Cmax [6]: 342 ng/mL; bioavailability [7]: 36%; half-life [8]: 10.3 h; MRT (Rattus norvegicus [9]): 4 h; CL (Rattus norvegicus [10]): 16.73 mL/min/kg; Vdss (Rattus norvegicus [11]): 14.898 L/kg; AUC [12]: 915 ng·h/mL; Cmax [13]: 764 ng/mL
1.2 | Cc1cnc(Nc2ccc(C(=O)Nc3c(C)cccc3C)cc2)nc1-c1cccc(OC(F)(F)F)c1 | –
> 500 | Cc1cnc(Nc2ccc(C(=O)Nc3c(C)cccc3C)cc2)nc1-c1ccccc1OC(F)(F)F | –
159 | Cc1cnc(Nc2ccc(C(=O)Nc3c(C)cccc3C)cc2)nc1-c1ccc(OC(F)(F)F)c(F)c1 | –
2.8 | Cc1cnc(Nc2ccc(C(=O)Nc3c(C)cccc3C)cc2)nc1-c1ccc(C#N)cc1 | –
20.2 | Cc1cnc(Nc2ccc(C(=O)Nc3c(C)cccc3C)cc2)nc1-c1ccc(N2CCOCC2)cc1 | –
2.2 | Cc1cnc(Nc2ccc(C(=O)Nc3c(C)cccc3C)cc2)nc1-c1ccc(F)cc1 | –
> 500 | Cc1ccc(-c2nc(Nc3ccc(C(=O)Nc4c(C)cccc4C)cc3)ncc2C)cc1 | –
1.3 | Cc1cnc(Nc2ccc(C(=O)Nc3c(C)cccc3C)cc2)nc1-c1ccccc1 | –
5.5 | Cc1c(C(=O)Nc2ccc(N3C[C@@H](C)O[C@@H](C)C3)nc2)cccc1-c1ccc(OC(F)(F)F)cc1 [SONIDEGIB] | –
7.2 | CS(=O)(=O)c1ccc(C(=O)Nc2ccc(Cl)c(-c3ccccn3)c2)c(Cl)c1 [VISMODEGIB] | –

Reference: ChEMBL document CHEMBL3091400, “The discovery of novel N-(2-pyrimidinylamino) benzamide derivatives as potent hedgehog signaling pathway inhibitors” (Bioorg Med Chem Lett, 2013)
